Source: patent publication US4617302A, “Inotropic agents” (Eli Lilly and Company, priority 1984, dated 1986)

Experiments:
[1] = test system: anesthetized dog (ventricular contractility); assay: Ventricular contractility in the anesthetized dog; type: in vivo; details: Canis lupus familiaris, iv; anesthetized mongrel dogs, i.v. bolus in normal saline; by interpolation; read-out: ED50, dose required to produce a peak increase in contractility of 50%
Protocol: Mongrel dogs of either sex ranging in weight from 7 to 14 kg were used. Anesthesia was induced with sodium pentobarbital (30 mg/kg, i.v.) and maintained with supplemental doses as required. A positive-pressure pump was used to ventilate the dogs through an endotracheal tube (18 strokes/minute, 20 ml/kg stroke^-1), and a heating pad kept the body temperature at 37°-38° C.
Femoral arterial blood pressure was measured through a polyethylene catheter filled with heparin solution (16 units/ml) and connected to a Statham pressure transducer. A strain-gauge arch sutured to the right ventricle of the heart measured cardiac contractility. Tension on the gauge was adjusted to 50 g and the gain of the recorder (Beckman dynograph) was set so that 50 g caused a 10-mm pen deflection. Cardiac contractile tension was measured as millimeters of pen deflection or grams of tension. The test compounds were administered as an i.v. bolus (2-5 ml) in a normal saline vehicle following a 30-45 minute equilibrium period. […] The maximum effects on contractility at various dose levels were determined and plotted and the dose required to produce a 50% increase in contractility (ED50) was determined by interpolation.

[2] = test system: conscious dogs (contractility, LVdP/dt); assay: Cardiac contractility in conscious dogs; type: in vivo; details: Canis lupus familiaris, po; conscious mongrel dogs, fasted eighteen hours, administered in gelatin capsules; by interpolation; read-out: ED50, dose required to produce a 50-percent increase in contractility
From the text: Mongrel dogs of either sex weighing 15-36 kg were chronically instrumented to monitor peak systolic pressure, heart rate, left ventricular pressure and its first derivative, LVdP/dt at 60 mm of mercury. Under halothane-nitrous oxide anesthesia, a precalibrated Konigsberg P22 Pressure Transducer was implanted into the left ventricle through a stab wound at the apex. Following recovery from surgery, a minimum of two weeks was allowed to train the dogs to lie quietly for four-hour periods. This conditioning was necessary to obtain stable, reproducible results from day to day. Dogs were fasted eighteen hours before an experiment. Gross behavioral observations of animals were made throughout each study. Compounds or placebo (lactose) were administered in gelatin capsules. The maximum effects on contractility at various dose levels were determined and plotted and the dose required to produce a 50-percent increase in contractility (ED50) was determined by interpolation. The ED50 for the compound of Example 1 was determined to be 50 mcg/kg.

Cat Papillary Muscles = assay: Positive inotropic activity in isolated cat papillary muscles; details: Felis catus, control = 100 percent, average of 2 to 8 muscles, read-out: Contractility of Papillary Muscle, peak response as percent of control; for activity at 100 µM: Compound Concentration 10^-4 M; for activity at 10 µM: Compound Concentration 10^-5 M
Protocol: Cats of either sex were anesthetized with Metofane (1,1-difluoro-2,2-dichloroethyl methyl ether, Pittman-Moore). Their hearts were immediately removed and the papillary muscles dissected and suspended in individual organ baths. A platinum hook secured one end of the muscle to an electrode mounted in the bottom of the bath, and a silk thread attached the tendon to a Statham isometric transducer. The baths contained Krebs-Henseleit solution (36° C., bubbled with 95 percent oxygen - 5 percent carbon dioxide) of the following millimolar composition: NaCl, 118; KCl, 4.5; CaCl2, 2.5; KH2 PO4, 1.1; MgSO4, 1.2; NaHCO3, 25; and glucose, 11.
A base-line tension of 1.5 g was applied to each muscle. Square-wave pulses (5.0 msec. in duration, three times threshold voltage) delivered through the hook electrode and a second electrode positioned near the top of the muscle evoked 12 contractions/minute, which were recorded on a Grass polygraph. After the muscles had equilibrated for 60 minutes, the recorder gain was adjusted so that the pen deflected 10 mm. The test compound was introduced in a solution of normal saline in an amount to bring the final concentration of the compound to 10^-5 or 10^-4 molar. Increases in contractility were tabulated as millimeters of pen deflection in excess of the baseline value. In each experiment the maximum contractility was measured. Test results are summarized in Table I and are expressed as percent of control (control=100 percent). Values are the average of results from 2 to 8 muscles.

Compound	ED50 [1]	ED50 [2]	activity at 100 µM (Cat Papillary Muscles)	activity at 10 µM (Cat Papillary Muscles)
O=C1CCC(c2ccc3c(c2)C2(CC2)C(=O)N3)=NN1 [Example 1, 5'-(1,4,5,6-tetrahydro-6-oxo-3-pyridazinyl)-spiro[cyclopropane-1,3'-[3H]indol]-2'(1'H)-one]	0.0019 mg/kg	0.05 mg/kg		
O=C1CCC(c2ccc3c(c2)C2(CCCC2)C(=O)N3)=NN1 [Example 2, 5'-(1,4,5,6-tetrahydro-6-oxo-3-pyridazinyl)-spiro[cyclopentane-1,3'-[3H]indol]-2'(1'H)-one]	0.07 mg/kg		134%	132%
O=C1CCC(c2ccc3c(c2)C2(CCC2)C(=O)N3)=NN1 [Example 3, 5'-(1,4,5,6-tetrahydro-6-oxo-3-pyridazinyl)-spiro[cyclobutane-1,3'-[3H]indol]-2'(1'H)-one]	0.025 mg/kg		132%	138%
